Values after ≈ are worked out from the molar mass of the structure shown.
Key:
Assay type in all cases: functional
Staphylococcus aureus [1] = experiment: Antibacterial activity against methicillin-resistant Staphylococcus aureus USF657 by agar disk diffusion method
Staphylococcus aureus [2] = experiment: Antibacterial activity against methicillin-resistant Staphylococcus aureus USF655 by agar disk diffusion method
Staphylococcus aureus [3] = experiment: Antibacterial activity against methicillin-resistant Staphylococcus aureus USF654 by agar disk diffusion method
Staphylococcus aureus [4] = experiment: Antibacterial activity against methicillin-resistant Staphylococcus aureus USF659 by agar disk diffusion method
Staphylococcus aureus [5] = experiment: Antibacterial activity against methicillin-resistant Staphylococcus aureus USF656 by agar disk diffusion method
Staphylococcus aureus [6] = experiment: Antibacterial activity against Staphylococcus aureus 849 ATCC 25923 by agar disk diffusion method
Staphylococcus aureus [7] = experiment: Antibacterial activity against methicillin-resistant Staphylococcus aureus USF653 by agar disk diffusion method
Staphylococcus aureus [8] = experiment: Antibacterial activity against methicillin-resistant Staphylococcus aureus USF652 by agar disk diffusion method
Staphylococcus aureus [9] = experiment: Antibacterial activity against methicillin-resistant Staphylococcus aureus USF658 by agar disk diffusion method
Staphylococcus aureus [10] = experiment: Antibacterial activity against methicillin-resistant Staphylococcus aureus
Staphylococcus aureus [11] = experiment: Antibacterial activity against Staphylococcus aureus
Bacillus thuringiensis = experiment: Antibacterial activity against Bacillus thuringiensis by agar disk diffusion method
Staphylococcus aureus [12] = experiment: Antibacterial activity against methicillin-resistant Staphylococcus aureus USF919 ATCC 43300 by agar disk diffusion method
Heyndrickxia coagulans = experiment: Antibacterial activity against Bacillus coagulans by agar disk diffusion method
Bacillus cereus = experiment: Antibacterial activity against Bacillus cereus by agar disk diffusion method
Bacillus subtilis [13] = experiment: Antibacterial activity against Bacillus subtilis by agar disk diffusion method
Priestia megaterium = experiment: Antibacterial activity against Bacillus megaterium by agar disk diffusion method
Bacillus subtilis [14] = experiment: Antibacterial activity against Bacillus globigii by agar disk diffusion method
Staphylococcus aureus [15] = experiment: Antibacterial activity against methicillin-resistant Staphylococcus aureus USF920 ATCC 33591 by agar disk diffusion method

Row | SMILES | inhibition zone (IZ) (Staphylococcus aureus [1]) | inhibition zone (IZ) (Staphylococcus aureus [2]) | inhibition zone (IZ) (Staphylococcus aureus [3]) | inhibition zone (IZ) (Staphylococcus aureus [4]) | inhibition zone (IZ) (Staphylococcus aureus [5]) | inhibition zone (IZ) (Staphylococcus aureus [6]) | inhibition zone (IZ) (Staphylococcus aureus [7]) | inhibition zone (IZ) (Staphylococcus aureus [8]) | inhibition zone (IZ) (Staphylococcus aureus [9]) | MIC (Staphylococcus aureus [10]) | MIC (Staphylococcus aureus [11]) | inhibition zone (IZ) (Bacillus thuringiensis) | inhibition zone (IZ) (Staphylococcus aureus [12]) | inhibition zone (IZ) (Heyndrickxia coagulans) | inhibition zone (IZ) (Bacillus cereus) | inhibition zone (IZ) (Bacillus subtilis [13]) | inhibition zone (IZ) (Priestia megaterium) | inhibition zone (IZ) (Bacillus subtilis [14]) | inhibition zone (IZ) (Staphylococcus aureus [15])
1 | CO[C@H]1C(=O)N(SC)[C@H]1c1ccccc1 | 27 mm | 25 mm | 26 mm | 24 mm | 28 mm | 25 mm | 30 mm | 30 mm | 26 mm |  |  |  |  |  |  |  |  |  | 
2 | CSN1C(=O)OC[C@H]1c1ccccc1 | 27 mm | 28 mm | 26 mm | 26 mm | 28 mm | 29 mm | 30 mm | 30 mm | 27 mm | 8 µg/mL (≈ 38.2 µM) | 8 µg/mL (≈ 38.2 µM) | 15 mm | 28 mm | 17 mm | 23 mm | 19 mm | 20 mm | 17 mm | 28 mm
3 | CSN1C(=O)OC[C@@H]1C(C)C | 22 mm | 22 mm | 23 mm | 22 mm | 22 mm | 20 mm | 27 mm | 19 mm | 16 mm | 16 µg/mL (≈ 91.3 µM) | 16 µg/mL (≈ 91.3 µM) | 16 mm | 21 mm | 17 mm | 22 mm | 17 mm | 18 mm | 15 mm | 18 mm
4 | CSN1C(=O)O[C@@H](CN=[N+]=[N-])[C@@H]1c1ccccc1 | 30 mm | 30 mm | 30 mm | 28 mm | 31 mm | 31 mm | 32 mm | 30 mm | 31 mm |  |  |  | 32 mm |  |  |  |  |  | 32 mm
5 | CSN1C(=O)OC[C@H]1C(C)C | 19 mm | 18 mm | 20 mm | 22 mm | 20 mm | 21 mm | 25 mm | 12 mm | 19 mm |  |  | 0 mm | 13 mm | 0 mm | 15 mm | 19 mm | 10 mm | 17 mm | 15 mm
6 | COC(=O)[C@@H]1OC(=O)N(SC)[C@H]1c1ccccc1 | 12 mm | 14 mm | 14 mm | 16 mm | 15 mm | 16 mm | 19 mm | 12 mm | 14 mm |  |  |  | 11 mm |  |  |  |  |  | 0 mm
7 | CC1(C)S[C@@H]2[C@H](NC(=O)Cc3ccccc3)C(=O)N2[C@H]1C(=O)O [PENICILLIN G] | 12 mm | 14 mm | 10 mm | 16 mm | 12 mm | 33 mm | 15 mm | 8 mm | 19 mm |  |  |  |  |  |  |  |  |  | 
8 | CSN1C(=O)OCC1Cc1ccccc1 (stereo not given) | 19 mm | 17 mm | 18 mm | 19 mm | 19 mm | 17 mm | 20 mm | 17 mm | 17 mm |  |  |  | 19 mm |  |  |  |  |  | 19 mm
9 | CSN1C(=O)OC[C@@H]1c1ccccc1 | 29 mm | 29 mm | 29 mm | 26 mm | 31 mm | 30 mm | 31 mm | 30 mm | 29 mm |  |  | 17 mm | 30 mm | 17 mm | 24 mm | 19 mm | 18 mm | 15 mm | 28 mm
10 | CCC(C)SN1CC(CCl)OC1=O (stereo not given) | 22 mm | 22 mm | 22 mm | 20 mm | 20 mm | 19 mm | 20 mm | 19 mm | 21 mm |  |  |  | 19 mm |  |  |  |  |  | 19 mm
11 | CSN1CC(CCl)OC1=O (stereo not given) | 21 mm | 20 mm | 20 mm | 19 mm | 22 mm | 21 mm | 20 mm | 16 mm | 18 mm |  |  |  | 20 mm |  |  |  |  |  | 16 mm
